Measurements: patent US7008905B2, “Method of combating undesired plant growth on cereals” (BASF Aktiengesellschaft, priority 2000, dated 2006)

Legend:
Assay type in all cases: in vivo
HORVW = experiment: Pre-emergence test, selectivity; settings: 3 weeks after treatment, rating 0-100 (100=death), Table 2
Summary of the method: (§1)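 Herbicidal effect was scored visually on a 0–100 scale (100 = death, 0 = untreated-like) three weeks after treatment. Soil was horticultural loam sprayed just after sowing with aqueous-diluted acetone/0.4% TRITON X-155 formulations at 15–240 g a.i./ha (900 L/ha).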

[1] = system: Triticum aestivum variety “Monopol”; experiment: Pre-emergence test, selectivity; settings: 3 weeks after treatment, rating 0-100 (100=death), Table 2
Summary of the method: as §1

[2] = system: Hordeum vulgare variety “Mammut”; experiment: Pre-emergence test, selectivity; settings: 3 weeks after treatment, rating 0-100 (100=death), Table 2
Summary of the method: as §1

[3] = system: Triticum aestivum variety “Kanzler”; experiment: Pre-emergence test, selectivity; settings: 3 weeks after treatment, rating 0-100 (100=death), Table 2
Summary of the method: as §1

Polygonum convolvulus = experiment: Pre-emergence test, weed control; settings: 3 weeks after treatment, rating 0-100 (100=death), Table 1
Summary of the method: as §1

Galium aparine [4] = experiment: Pre-emergence test, weed control; settings: 3 weeks after treatment, rating 0-100 (100=death), Table 1
Summary of the method: as §1

Matricaria inodora [5] = experiment: Pre-emergence test, weed control; settings: 3 weeks after treatment, rating 0-100 (100=death), Table 1
Summary of the method: as §1

Poa annua = experiment: Pre-emergence test, weed control; settings: 3 weeks after treatment, rating 0-100 (100=death), Table 1
Summary of the method: as §1

Setaria viridis = experiment: Pre-emergence test, weed control; settings: 3 weeks after treatment, rating 0-100 (100=death), Table 1
Summary of the method: as §1

Lamium purpureum [6] = experiment: Pre-emergence test, weed control; settings: 3 weeks after treatment, rating 0-100 (100=death), Table 1
Summary of the method: as §1

Lolium perenne = experiment: Pre-emergence test, weed control; settings: 3 weeks after treatment, rating 0-100 (100=death), Table 1
Summary of the method: as §1

Stellaria media [7] = experiment: Pre-emergence test, weed control; settings: 3 weeks after treatment, rating 0-100 (100=death), Table 1
Summary of the method: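 Visual 0–100 rating, three weeks after treatment, where 0 equals untreated sown soil and 100 means plant death. Sown horticultural loam received an aqueous dilution of acetone solution (0.4% w/w alkylphenol/ethylene oxide condensate) at 15–240 g/ha, 900 l/ha spray volume.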

Apera spica-venti = experiment: Pre-emergence test, weed control; settings: 3 weeks after treatment, rating 0-100 (100=death), Table 1
Summary of the method: as §1

Alopecurus myosuroides = experiment: Pre-emergence test, weed control; settings: 3 weeks after treatment, rating 0-100 (100=death), Table 1
Summary of the method: as §1

Veronica persica = experiment: Pre-emergence test, weed control; settings: 3 weeks after treatment, rating 0-100 (100=death), Table 1
Summary of the method: as §1

Galium aparine [8] = experiment: Post-emergence test, weed control; settings: 2–4 weeks after treatment, rating 0-100 (100=death), Table 5
Experimental: (§2) These acetone solutions are diluted with water and the resulting formulations applied at dosage levels equivalent of about 0.030 to 0.240 kg per hectare of test compound per pot. After spraying the plants are placed an greenhouse benches and are cared for in the usual manner, commensurate with conventional greenhouse practices. From 2 to 4 weeks after treatment, the seedling plants are examined and rated according to the rating system provided above. A rating 0 indicates growth as untreated control, a rating 100 indicates death.

Matricaria inodora [9] = experiment: Post-emergence test, weed control; settings: 2–4 weeks after treatment, rating 0-100 (100=death), Table 5
Experimental: as §2

Lamium purpureum [10] = experiment: Post-emergence test, weed control; settings: 2–4 weeks after treatment, rating 0-100 (100=death), Table 5
Experimental: as §2

Stellaria media [11] = experiment: Post-emergence test, weed control; settings: 2–4 weeks after treatment, rating 0-100 (100=death), Table 5
Experimental: as §2

Compound: Cc1cnc(-c2ccc(C(F)(F)F)cc2)nc1Oc1cccc(C(F)(F)F)c1 [REF-1]
- HORVW rating (Selectivity) (HORVW; 0.015 kg/ha): 35
- HORVW rating (Selectivity) (HORVW; 0.030 kg/ha): 45
- HORVW rating (Selectivity) (HORVW; 0.060 kg/ha): 55
- HORVW rating (Selectivity) (HORVW; 0.120 kg/ha): 60
- HORVW rating (Selectivity) (HORVW; 0.240 kg/ha): 65
- TRZAWM rating (Selectivity) ([1]; 0.015 kg/ha): 3
- TRZAWM rating (Selectivity) ([1]; 0.030 kg/ha): 12
- TRZAWM rating (Selectivity) ([1]; 0.060 kg/ha): 25
- TRZAWM rating (Selectivity) ([1]; 0.120 kg/ha): 30
- TRZAWM rating (Selectivity) ([1]; 0.240 kg/ha): 45
- HORVWM rating (Selectivity) ([2]; 0.015 kg/ha): 25
- HORVWM rating (Selectivity) ([2]; 0.030 kg/ha): 45
- HORVWM rating (Selectivity) ([2]; 0.060 kg/ha): 45
- HORVWM rating (Selectivity) ([2]; 0.120 kg/ha): 60
- HORVWM rating (Selectivity) ([2]; 0.240 kg/ha): 65
- TRZAWK rating (Selectivity) ([3]; 0.015 kg/ha): 3
- TRZAWK rating (Selectivity) ([3]; 0.030 kg/ha): 10
- TRZAWK rating (Selectivity) ([3]; 0.060 kg/ha): 25
- TRZAWK rating (Selectivity) ([3]; 0.120 kg/ha): 25
- TRZAWK rating (Selectivity) ([3]; 0.240 kg/ha): 40
- POLCO weed control rating (Polygonum convolvulus; 0.015 kg/ha): 92
- POLCO weed control rating (Polygonum convolvulus; 0.030 kg/ha): 93
- POLCO weed control rating (Polygonum convolvulus; 0.060 kg/ha): 100
- POLCO weed control rating (Polygonum convolvulus; 0.1 kg/ha): 100
- POLCO weed control rating (Polygonum convolvulus; 0.240 kg/ha): 100
- GALAP weed control rating (Galium aparine [4]; 0.015 kg/ha): 5
- GALAP weed control rating (Galium aparine [4]; 0.030 kg/ha): 15
- GALAP weed control rating (Galium aparine [4]; 0.060 kg/ha): 50
- GALAP weed control rating (Galium aparine [4]; 0.1 kg/ha): 75
- GALAP weed control rating (Galium aparine [4]; 0.240 kg/ha): 95
- MATIN weed control rating (Matricaria inodora [5]; 0.015 kg/ha): 99
- MATIN weed control rating (Matricaria inodora [5]; 0.030 kg/ha): 99
- MATIN weed control rating (Matricaria inodora [5]; 0.060 kg/ha): 100
- MATIN weed control rating (Matricaria inodora [5]; 0.1 kg/ha): 100
- MATIN weed control rating (Matricaria inodora [5]; 0.240 kg/ha): 100
- POAAN weed control rating (Poa annua; 0.015 kg/ha): 98
- POAAN weed control rating (Poa annua; 0.030 kg/ha): 100
- POAAN weed control rating (Poa annua; 0.060 kg/ha): 100
- POAAN weed control rating (Poa annua; 0.1 kg/ha): 100
- POAAN weed control rating (Poa annua; 0.240 kg/ha): 100
- SETVI weed control rating (Setaria viridis; 0.015 kg/ha): 93
- SETVI weed control rating (Setaria viridis; 0.030 kg/ha): 100
- SETVI weed control rating (Setaria viridis; 0.060 kg/ha): 100
- SETVI weed control rating (Setaria viridis; 0.1 kg/ha): 100
- SETVI weed control rating (Setaria viridis; 0.240 kg/ha): 100
- LAMPU weed control rating (Lamium purpureum [6]; 0.015 kg/ha): 100
- LAMPU weed control rating (Lamium purpureum [6]; 0.030 kg/ha): 100
- LAMPU weed control rating (Lamium purpureum [6]; 0.060 kg/ha): 100
- LAMPU weed control rating (Lamium purpureum [6]; 0.1 kg/ha): 100
- LAMPU weed control rating (Lamium purpureum [6]; 0.240 kg/ha): 100
- LOLPE weed control rating (Lolium perenne; 0.015 kg/ha): 80
- LOLPE weed control rating (Lolium perenne; 0.030 kg/ha): 95
- LOLPE weed control rating (Lolium perenne; 0.060 kg/ha): 99
- LOLPE weed control rating (Lolium perenne; 0.1 kg/ha): 100
- LOLPE weed control rating (Lolium perenne; 0.240 kg/ha): 100
- STEME weed control rating (Stellaria media [7]; 0.030 kg/ha): 90
- STEME weed control rating (Stellaria media [7]; 0.060 kg/ha): 100
- STEME weed control rating (Stellaria media [7]; 0.1 kg/ha): 100
- STEME weed control rating (Stellaria media [7]; 0.240 kg/ha): 100
- APESV weed control rating (Apera spica-venti; 0.015 kg/ha): 100
- APESV weed control rating (Apera spica-venti; 0.030 kg/ha): 100
- APESV weed control rating (Apera spica-venti; 0.060 kg/ha): 100
- APESV weed control rating (Apera spica-venti; 0.1 kg/ha): 100
- APESV weed control rating (Apera spica-venti; 0.240 kg/ha): 100
- ALOMY weed control rating (Alopecurus myosuroides; 0.015 kg/ha): 65
- ALOMY weed control rating (Alopecurus myosuroides; 0.030 kg/ha): 92
- ALOMY weed control rating (Alopecurus myosuroides; 0.060 kg/ha): 100
- ALOMY weed control rating (Alopecurus myosuroides; 0.1 kg/ha): 100
- ALOMY weed control rating (Alopecurus myosuroides; 0.240 kg/ha): 100
- VERPE weed control rating (Veronica persica; 0.015 kg/ha): 100
- VERPE weed control rating (Veronica persica; 0.030 kg/ha): 100
- VERPE weed control rating (Veronica persica; 0.060 kg/ha): 100
- VERPE weed control rating (Veronica persica; 0.1 kg/ha): 100
- VERPE weed control rating (Veronica persica; 0.240 kg/ha): 100
- GALAP weed control rating (Galium aparine [8]; 0.030 kg/ha): 80
- GALAP weed control rating (Galium aparine [8]; 0.060 kg/ha): 85
- GALAP weed control rating (Galium aparine [8]; 0.120 kg/ha): 92
- GALAP weed control rating (Galium aparine [8]; 0.240 kg/ha): 92
- MATIN weed control rating (Matricaria inodora [9]; 0.030 kg/ha): 70
- MATIN weed control rating (Matricaria inodora [9]; 0.060 kg/ha): 75
- MATIN weed control rating (Matricaria inodora [9]; 0.120 kg/ha): 75
- MATIN weed control rating (Matricaria inodora [9]; 0.240 kg/ha): 85
- LAMPU weed control rating (Lamium purpureum [10]; 0.030 kg/ha): 93
- LAMPU weed control rating (Lamium purpureum [10]; 0.060 kg/ha): 93
- LAMPU weed control rating (Lamium purpureum [10]; 0.120 kg/ha): 93
- LAMPU weed control rating (Lamium purpureum [10]; 0.240 kg/ha): 93
- STEME weed control rating (Stellaria media [11]; 0.030 kg/ha): 80
- STEME weed control rating (Stellaria media [11]; 0.060 kg/ha): 90
- STEME weed control rating (Stellaria media [11]; 0.120 kg/ha): 92
- STEME weed control rating (Stellaria media [11]; 0.240 kg/ha): 92
